Test results taken from ChEMBL document CHEMBL5725860 (2018).
pEC50: −log10 of the molar value.

These molecules were tested against Neurotensin receptor type 1 (Homo sapiens, UniProt P30989) (assay: NTR1 Ca2+ Flux Dose Response: NTSR1 (NTR1) CHO cells are plated in 20 uL of assay media containing Ham's F12 supplemented with 10% fetal bovine serum and 0.4 mg/mL G418 at a concentration of 1.0×10^6 cells per mL into black, 384-well assay plates with clear bottoms using a Multidrop liquid handler. Assay plates are incubated at 37° C. in 5% CO2. The next day, the assay plates are aspirated to remove growth media and washed once with 20 uL of DPBS. The DPBS is then aspirated from the assay plate and replaced with 25 uL of Fluo-4 NW calcium dye prepared according to the manufacturer's recommendations then the plates are incubated for 1 hour at 37° C. Following the incubation in the presence of dye, the assay is run on a Molecular Devices FlexStation-III using 494 excitation and 516 emission wavelengths set to read for 90 seconds with the addition at 18 seconds of 5 uL of 6× final concentration of test compounds and peptide control diluted in assay media containing 0.1% BSA and no more than 9% DMSO to yield a maximum final DMSO concentration of 1.5%. […] EC50 values were calculated for those compounds tested in 8-point dose dependent response.).
Sequence of Neurotensin receptor type 1 (P30989 whole entry): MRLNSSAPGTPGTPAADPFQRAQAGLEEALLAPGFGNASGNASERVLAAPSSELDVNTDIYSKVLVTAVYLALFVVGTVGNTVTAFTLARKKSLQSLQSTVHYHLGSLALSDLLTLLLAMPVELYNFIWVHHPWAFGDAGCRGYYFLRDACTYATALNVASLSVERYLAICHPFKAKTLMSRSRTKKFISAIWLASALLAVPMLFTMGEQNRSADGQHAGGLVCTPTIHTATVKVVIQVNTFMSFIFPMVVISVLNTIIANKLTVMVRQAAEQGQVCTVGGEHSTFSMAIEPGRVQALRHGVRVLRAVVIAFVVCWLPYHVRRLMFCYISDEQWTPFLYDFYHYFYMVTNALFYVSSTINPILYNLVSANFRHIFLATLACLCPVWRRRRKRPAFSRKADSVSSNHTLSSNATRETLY

pEC50 | SMILES
> 6.30 | COc1ccccc1C1CCN(c2nc(C3CC3)nc3cc(F)c(N(C)CCO)cc23)CC1
< 5.00 | COc1ccccc1C1CCN(c2nc(C3CC3)nc3c(N(C)CCO)cccc23)CC1
< 5.00 | COc1ccccc1C1CCN(c2nc(C3CC3)nc(C)c2CC(=O)N(C)CCO)CC1
< 5.00 | COc1cccc2c1CCN(c1nc(C3CC3)nc3ccc(N(C)CCO)cc13)C2
